Experimental data published in patent US11370798B2 (Vertex Pharmaceuticals Incorporated, priority 2012, dated 2022).

System: HCT116 colorectal cancer cells
Experiment: Cisplatin sensitization assay (96 h cell viability MTS);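 note: Test-compound concentration that lowers the Cisplatin IC50 by a set fold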
Format: cell-based
Conditions: compound and Cisplatin added simultaneously, Cisplatin sensitization value
Method in brief: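 Viability read by MTS (1 h at 37° C) after 96 h co-exposure at 37° C, 5% CO2. Test compound and cisplatin were dosed simultaneously in a full concentration matrix, each 2-fold serially diluted from 10 μM final; sensitization values binned in μM.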

Compound	Cisplatin Sensitization Assay
Nc1nn2cc(F)cnc2c1C(=O)Nc1cncc(F)c1N1CCC(S(=O)(=O)N2CCN3CCC2CC3)CC1 [I-N-273, N-(4-(4-(1,4-diazabicyclo[3.2.2]nonan-4-ylsulfonyl)piperidin-1-yl)-5-fluoropyridin-3-yl)-2-amino-6-fluoropyrazolo[1,5-a]pyrimidine-3-carboxamide]	+++ (Cisplatin sensitization value of <0.02 μM)
Nc1nn2cc(F)cnc2c1C(=O)Nc1cncc(F)c1N1CCN(C(=O)C2CCOC2)CC1 (centres unmarked) [I-N-274, 2-amino-6-fluoro-N-(5-fluoro-4-(4-(tetrahydrofuran-3-carbonyl)piperazin-1-yl)pyridin-3-yl)pyrazolo[1,5-a]pyrimidine-3-carboxamide]	+++ (Cisplatin sensitization value of <0.02 μM)
CC(=O)N1CCN(c2c(F)cncc2NC(=O)c2c(N)nn3cc(F)cnc23)CC1 [I-N-275, N-(4-(4-acetylpiperazin-1-yl)-5-fluoropyridin-3-yl)-2-amino-6-fluoropyrazolo[1,5-a]pyrimidine-3-carboxamide]	+++ (Cisplatin sensitization value of <0.02 μM)
Nc1nn2cc(F)cnc2c1C(=O)Nc1cncc(F)c1N1CCN(C(=O)C2CC2)CC1 [I-N-276, 2-amino-N-(4-(4-(cyclopropanecarbonyl)piperazin-1-yl)-5-fluoropyridin-3-yl)-6-fluoropyrazolo[1,5-a]pyrimidine-3-carboxamide]	+++ (Cisplatin sensitization value of <0.02 μM)
Nc1nn2cc(F)cnc2c1C(=O)Nc1cncc(F)c1N1CCN2C(=O)CCCC2C1 (centres unmarked) [I-N-277, 2-amino-6-fluoro-N-(5-fluoro-4-(6-oxohexahydro-1H-pyrido[1,2-a]pyrazin-2(6H)-yl)pyridin-3-yl)pyrazolo[1,5-a]pyrimidine-3-carboxamide]	+++ (Cisplatin sensitization value of <0.02 μM)
Nc1nn2cc(F)cnc2c1C(=O)Nc1cncc(F)c1N1CCN(C(=O)C2COC2)CC1 [I-N-278, 2-amino-6-fluoro-N-(5-fluoro-4-(4-(oxetane-3-carbonyl)piperazin-1-yl)pyridin-3-yl)pyrazolo[1,5-a]pyrimidine-3-carboxamide]	+++ (Cisplatin sensitization value of <0.02 μM)
Nc1nn2cc(F)cnc2c1C(=O)Nc1cncc(F)c1N1CCN2C(=O)CCC[C@H]2C1 [I-N-279, (S)-2-amino-6-fluoro-N-(5-fluoro-4-(6-oxohexahydro-1H-pyrido[1,2-a]pyrazin-2(6H)-yl)pyridin-3-yl)pyrazolo[1,5-a]pyrimidine-3-carboxamide]	+++ (Cisplatin sensitization value of <0.02 μM)
Nc1nn2cc(F)cnc2c1C(=O)Nc1cncc(F)c1N1CCN2C(=O)CCC[C@@H]2C1 [I-N-280, (R)-2-amino-6-fluoro-N-(5-fluoro-4-(6-oxohexahydro-1H-pyrido[1,2-a]pyrazin-2(6H)-yl)pyridin-3-yl)pyrazolo[1,5-a]pyrimidine-3-carboxamide]	+++ (Cisplatin sensitization value of <0.02 μM)
Nc1nn2cc(F)cnc2c1C(=O)Nc1cncc(Cl)c1N1CCCC1 [I-N-281, 2-amino-N-(5-chloro-4-(pyrrolidin-1-yl)pyridin-3-yl)-6-fluoropyrazolo[1,5-a]pyrimidine-3-carboxamide]	+++ (Cisplatin sensitization value of <0.02 μM)
COCC1CCN(c2ccncc2NC(=O)c2c(N)nn3cc(F)cnc23)CC1 [I-N-282, 2-amino-6-fluoro-N-(4-(4-(methoxymethyl)piperidin-1-yl)pyridin-3-yl)pyrazolo[1,5-a]pyrimidine-3-carboxamide]	+++ (Cisplatin sensitization value of <0.02 μM)
Cc1cncn1-c1ccncc1NC(=O)c1c(N)nn2cc(F)cnc12 [I-N-283, 2-amino-6-fluoro-N-(4-(5-methyl-1H-imidazol-1-yl)pyridin-3-yl)pyrazolo[1,5-a]pyrimidine-3-carboxamide]	++ (Cisplatin sensitization value>0.02 μM but <0.2 μM)
Nc1nn2cc(F)cnc2c1C(=O)Nc1cncc(Cl)c1N1CCC(O)C1 (centres unmarked) [I-N-284, 2-amino-N-(5-chloro-4-(3-hydroxypyrrolidin-1-yl)pyridin-3-yl)-6-fluoropyrazolo[1,5-a]pyrimidine-3-carboxamide]	+++ (Cisplatin sensitization value of <0.02 μM)
N#C[C@@H]1CCN(c2c(Cl)cncc2NC(=O)c2c(N)nn3cc(F)cnc23)C1 [I-N-285, (R)-2-amino-N-(5-chloro-4-(3-cyanopyrrolidin-1-yl)pyridin-3-yl)-6-fluoropyrazolo[1,5-a]pyrimidine-3-carboxamide]	++ (Cisplatin sensitization value>0.02 μM but <0.2 μM)
CN1CC2CN(c3c(Cl)cncc3NC(=O)c3c(N)nn4cc(F)cnc34)CC2C1 (centres unmarked) [I-N-286, 2-amino-N-(5-chloro-4-(5-methylhexahydropyrrolo[3,4-c]pyrrol-2(1H)-yl)pyridin-3-yl)-6-fluoropyrazolo[1,5-a]pyrimidine-3-carboxamide]	++ (Cisplatin sensitization value>0.02 μM but <0.2 μM)
CS(=O)(=O)C1CCN(c2c(Cl)cncc2NC(=O)c2c(N)nn3cc(F)cnc23)C1 (centres unmarked) [I-N-287, 2-amino-N-(5-chloro-4-(3-(methylsulfonyl)pyrrolidin-1-yl)pyridin-3-yl)-6-fluoropyrazolo[1,5-a]pyrimidine-3-carboxamide]	+++ (Cisplatin sensitization value of <0.02 μM)
Nc1nn2cc(F)cnc2c1C(=O)Nc1cncc(F)c1N1CCC(n2ccnc2)CC1 [I-N-288, N-(4-(4-(1H-imidazol-1-yl)piperidin-1-yl)-5-fluoropyridin-3-yl)-2-amino-6-fluoropyrazolo[1,5-a]pyrimidine-3-carboxamide]	+++ (Cisplatin sensitization value of <0.02 μM)
CN1CCN(C(=O)C2CCCN(c3c(F)cncc3NC(=O)c3c(N)nn4cc(F)cnc34)C2)CC1 (centres unmarked) [I-N-289, 2-amino-6-fluoro-N-(5-fluoro-4-(3-(4-methylpiperazine-1-carbonyl)piperidin-1-yl)pyridin-3-yl)pyrazolo[1,5-a]pyrimidine-3-carboxamide]	++ (Cisplatin sensitization value>0.02 μM but <0.2 μM)
CN(C)C(=O)C1CCCN(c2ccncc2NC(=O)c2c(N)nn3cc(F)cnc23)C1 (centres unmarked) [I-N-290, 2-amino-N-(4-(3-(dimethylcarbamoyl)piperidin-1-yl)pyridin-3-yl)-6-fluoropyrazolo[1,5-a]pyrimidine-3-carboxamide]	++ (Cisplatin sensitization value>0.02 μM but <0.2 μM)
CN1CC[C@H](Oc2ccncc2NC(=O)c2c(N)nn3cc(F)cnc23)C1 [I-O-1, (S)-2-amino-6-fluoro-N-(4-((1-methylpyrrolidin-3-yl)oxy)pyridin-3-yl)pyrazolo[1,5-a]pyrimidine-3-carboxamide]	+++ (Cisplatin sensitization value of <0.02 μM)
CN(C)Cc1ccc(Oc2ccncc2NC(=O)c2c(N)nn3cc(F)cnc23)cn1 [I-O-3, 2-amino-N-(4-((6-((dimethylamino)methyl)pyridin-3-yl)oxy)pyridin-3-yl)-6-fluoropyrazolo[1,5-a]pyrimidine-3-carboxamide]	++ (Cisplatin sensitization value>0.02 μM but <0.2 μM)
